These results are taken from ChEMBL document CHEMBL1275399, “Novel potent orally active multitargeted receptor tyrosine kinase inhibitors: synthesis, structure-activity relationships, and antitumor activities of 2-indolinone derivatives” (J Med Chem, 2010).

Data set [1] is described as follows: Half life in Sprague-Dawley rat at 10 mg/kg, po and 10 mg/kg iv. The format is ADME, organism-based. Particulars: in vivo.
Data set [2] is described as follows: Cmax in Sprague-Dawley rat at 10 mg/kg, po and 10 mg/kg iv. The format is ADME, organism-based. The conditions noted are these: in vivo.
In data set [3] the target is Platelet-derived growth factor receptor beta (Homo sapiens, UniProt P09619). The data set can be described thus: Inhibition of human PDGFRbeta after 30 mins by ELISA.
Data set [4] addresses Mast/stem cell growth factor receptor Kit (Homo sapiens, UniProt P10721). The data set can be described thus: Inhibition of c-Kit after 30 mins by ELISA.
Data set [5] can be described thus: Volume of distribution in Sprague-Dawley rat at 10 mg/kg, po and 10 mg/kg iv. Type of data set: ADME, organism-based. The conditions noted are these: in vivo.
The subject of data set [6] is Mus musculus. The data set can be described thus: Toxicity in human HT-29 cells xenografted BALB/cA nude mouse assessed as mortality at up to 30 mg/kg, po administered 11 days after tumor implantation qd for 14 days. The format is organism-based. More on the design: dose 30 mg/kg, route oral. Particulars: in vivo.
The nature of data set [7]: Oral bioavailability in Sprague-Dawley rat at 10 mg/kg. Type of data set: ADME, organism-based. The conditions noted are these: in vivo.
A short description of data set [8]: Clearance in Sprague-Dawley rat at 10 mg/kg, po and 10 mg/kg iv. The format is ADME, organism-based. The conditions noted are these: in vivo.
The test system of data set [9] is Mus musculus. Description: Toxicity in human HT-29 cells xenografted BALB/cA nude mouse assessed as weight loss at up to 30 mg/kg, po administered 11 days after tumor implantation qd for 14 days. The format is organism-based. The arrangement: dose 30 mg/kg, route oral. Particulars: in vivo. (Xenograft models place foreign cells or tissue in a host animal.)
A further data set deals with Rattus norvegicus. Description: AUC in Sprague-Dawley rat at 40 mg/kg, po. Type of data set: ADME, organism-based, Plasma. The arrangement: dose 40 mg/kg, route oral. The conditions noted are these: in vivo.
Data set [10] concerns HT-29. Description: Antitumor activity against human HT-29 cells xenografted in po dosed BALB/cA nude mouse assessed as inhibition of tumor growth administered 11 days after tumor implantation qd for 14 days. The format is functional, organism-based.
The test system of data set [11] is HT-29. Description: animal or person. The conditions noted are these: Mus musculus, HT-29, po, read-out: TGI.
Description: Antitumor activity against human HT-29 cells xenografted in BALB/cA nude mouse assessed as inhibition of tumor growth at 10 mg/kg, po administered 11 days after tumor implantation qd for 14 days
For data set [12], the system named is HT-29. The data set can be described thus: animal or person. The conditions noted are these: Mus musculus, HT-29, po, read-out: TGI. The source holds these as a separate data set.
Description: Antitumor activity against human HT-29 cells xenografted in BALB/cA nude mouse assessed as inhibition of tumor growth at 30 mg/kg, po administered 11 days after tumor implantation qd for 14 days

Chain of Mast/stem cell growth factor receptor Kit (P10721 whole entry): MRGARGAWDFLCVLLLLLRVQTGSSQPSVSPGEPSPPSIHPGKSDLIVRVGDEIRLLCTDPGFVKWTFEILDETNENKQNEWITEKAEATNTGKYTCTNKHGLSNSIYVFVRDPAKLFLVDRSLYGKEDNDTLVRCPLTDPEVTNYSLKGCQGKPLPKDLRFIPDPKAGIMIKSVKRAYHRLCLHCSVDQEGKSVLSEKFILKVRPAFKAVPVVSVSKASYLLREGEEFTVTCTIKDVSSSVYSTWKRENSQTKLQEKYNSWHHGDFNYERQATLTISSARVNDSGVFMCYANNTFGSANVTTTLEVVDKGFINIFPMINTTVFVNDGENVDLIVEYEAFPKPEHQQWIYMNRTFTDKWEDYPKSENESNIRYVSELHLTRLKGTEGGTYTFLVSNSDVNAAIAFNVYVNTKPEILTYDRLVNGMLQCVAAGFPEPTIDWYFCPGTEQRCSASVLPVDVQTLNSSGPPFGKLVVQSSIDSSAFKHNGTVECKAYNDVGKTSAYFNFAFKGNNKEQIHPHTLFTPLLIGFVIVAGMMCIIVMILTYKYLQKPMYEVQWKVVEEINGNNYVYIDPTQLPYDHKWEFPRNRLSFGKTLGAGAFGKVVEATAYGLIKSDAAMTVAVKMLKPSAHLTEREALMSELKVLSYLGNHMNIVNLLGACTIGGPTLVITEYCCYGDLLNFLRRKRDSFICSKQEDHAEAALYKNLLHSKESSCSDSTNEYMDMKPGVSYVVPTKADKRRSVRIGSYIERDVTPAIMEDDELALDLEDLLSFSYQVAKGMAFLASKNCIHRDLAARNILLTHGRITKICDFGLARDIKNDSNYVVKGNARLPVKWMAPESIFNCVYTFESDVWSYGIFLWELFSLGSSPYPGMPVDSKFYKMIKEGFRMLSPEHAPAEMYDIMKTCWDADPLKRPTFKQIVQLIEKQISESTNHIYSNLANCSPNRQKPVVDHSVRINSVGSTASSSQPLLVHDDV
Chain of Platelet-derived growth factor receptor beta (P09619 whole entry): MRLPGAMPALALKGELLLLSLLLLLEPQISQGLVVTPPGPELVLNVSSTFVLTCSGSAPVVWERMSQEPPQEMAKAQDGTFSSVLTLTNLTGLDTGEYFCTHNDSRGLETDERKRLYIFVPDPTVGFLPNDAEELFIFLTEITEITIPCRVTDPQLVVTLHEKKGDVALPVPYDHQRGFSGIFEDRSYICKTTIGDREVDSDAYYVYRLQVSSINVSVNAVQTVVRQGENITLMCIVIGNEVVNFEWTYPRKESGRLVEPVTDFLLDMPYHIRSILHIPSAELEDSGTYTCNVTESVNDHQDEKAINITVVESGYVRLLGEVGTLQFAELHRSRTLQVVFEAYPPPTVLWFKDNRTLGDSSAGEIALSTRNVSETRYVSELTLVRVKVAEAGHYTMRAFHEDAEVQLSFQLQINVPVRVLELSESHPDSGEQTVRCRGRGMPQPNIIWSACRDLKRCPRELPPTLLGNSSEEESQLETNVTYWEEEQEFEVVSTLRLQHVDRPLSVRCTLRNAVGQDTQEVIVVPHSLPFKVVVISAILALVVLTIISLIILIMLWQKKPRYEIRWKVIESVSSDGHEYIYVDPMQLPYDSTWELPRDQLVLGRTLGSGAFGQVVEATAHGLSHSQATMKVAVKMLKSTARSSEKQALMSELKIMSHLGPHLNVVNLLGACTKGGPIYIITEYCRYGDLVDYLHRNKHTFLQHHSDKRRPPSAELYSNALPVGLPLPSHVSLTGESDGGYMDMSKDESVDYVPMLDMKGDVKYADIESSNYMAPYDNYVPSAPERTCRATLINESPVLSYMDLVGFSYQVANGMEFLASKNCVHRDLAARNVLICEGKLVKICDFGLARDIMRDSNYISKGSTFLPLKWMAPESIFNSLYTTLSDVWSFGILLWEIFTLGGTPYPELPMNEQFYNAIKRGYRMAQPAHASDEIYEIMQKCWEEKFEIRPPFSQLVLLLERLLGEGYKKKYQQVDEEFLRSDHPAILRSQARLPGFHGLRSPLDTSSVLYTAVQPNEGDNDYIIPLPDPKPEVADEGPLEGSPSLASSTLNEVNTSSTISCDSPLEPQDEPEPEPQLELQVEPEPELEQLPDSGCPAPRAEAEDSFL

In general, half-life refers to the time in which the quantity being followed falls by half. What is called Cmax is the maximum level reached in the sampled fluid or tissue. For orientation: IC50 means the concentration needed to halve the response being measured. A high value points to a need for much substance. As a reminder, the bioavailability is dose-corrected exposure relative to a reference, in per cent. Higher therefore signals good availability. Take `CCN(CC)CCN1CCc2[nH]c(/C=C3\C(=O)Nc4ccc(F)cc43)c(C)c2C1=O` [FAMITINIB]: the half-life in [1] was 18 h. The compound further displayed a Cmax in data set [2] of 450 ng/mL. Besides, the IC50 in [3] was determined as 4 nM; in data set [4] it was 2 nM. The same compound gave a Vd in data set [5] of 97.4 L/kg. Also, the Activity entry in the data set with Mus musculus [6] was “Toxic”; in the data set on Mus musculus [9] it was “Toxic”; with HT-29 [10], “Dose-dependent effect”. In data set [7], this compound showed a bioavailability of 36.7%. The compound also returned a clearance in [8] of 64.5 mL/min/kg. The compound also came in with an AUC in the data set with Rattus norvegicus of 10.96 ug/hr.ml. In the data set on HT-29 [11], the inhibition in vivo at 10 mg/kg amounted to 49.8%.

On to `CCN(CC)CCN1CCc2[nH]c(/C=C3\C(=O)Nc4ccc(Cl)cc43)c(C)c2C1=O`, for which the figures for the IC50 in data set [3] and in [4] were 2 nM and 4 nM, respectively.

Compound `Cc1c(/C=C2\C(=O)Nc3ccc(F)cc32)[nH]c2c1C(=O)N(C[C@H](O)CN1CCOCC1)CC2` showed a half-life in [1] of 3.41 h. In data set [2], this compound showed a Cmax of 6110 ng/mL. Also, the IC50 was 8 nM in [3] and 1 nM in [4]. The Vd in [5] was 4.13 L/kg. Further, the bioavailability in data set [7] was 50.7%. This compound returned a clearance in [8] of 17 mL/min/kg. In addition, the AUC in the data set on Rattus norvegicus is 41.18 ug/hr.ml.

In the case of `Cc1c(/C=C2\C(=O)Nc3ccc(F)cc32)[nH]c2c1C(=O)N(CCN1CCOCC1)CCC2`, the IC50 in data set [3] came to 5 nM; in data set [4] it was 4 nM.

As for `CCN(CC)CCN1CCc2[nH]c(/C=C3\C(=O)Nc4ccc(Br)cc43)c(C)c2C1=O`, the figures for the IC50 in data set [3] and in data set [4] were 3 nM and 4 nM, respectively.

Consider `CCN(CC)CCN1CCCCc2[nH]c(/C=C3\C(=O)Nc4ccc(F)cc43)c(C)c2C1=O`, for which the half-inhibitory concentration (IC50) in [3] is 13 nM; in [4], 9 nM.

`CCN(CC)CCNC(=O)c1c(C)[nH]c(/C=C2\C(=O)Nc3ccc(F)cc32)c1C` [SUNITINIB]: the inhibition in vivo at 30 mg/kg in the data set with HT-29 [12] was found to be 53.8%. For the same compound, the Activity entry in the data set with HT-29 [10] was “Dose-dependent effect”.

In turn, `CCN(CC)CCN1CCCc2[nH]c(/C=C3\C(=O)Nc4ccc(F)cc43)c(C)c2C1=O` had a half-life in data set [1] of 9.65 h. In [2], the peak level (Cmax) was 2410 ng/mL. Also, the IC50 amounted to 10 nM in [3] and 4 nM in data set [4]. Moreover, the Vd in data set [5] turned out to be 18.8 L/kg. In data set [7], this compound showed a bioavailability of 65.8%. In [8], this compound registered a clearance of 22.8 mL/min/kg. Besides, the AUC in the data set with Rattus norvegicus was found to be 27.61 ug/hr.ml.

In the case of `Cc1c(/C=C2\C(=O)Nc3ccc(F)cc32)[nH]c2c1C(=O)N(CCN1CCCC1)CC2`, the IC50 in data set [3] came out at 4 nM; in data set [4], 3 nM.

For the compound `Cc1c(/C=C2\C(=O)Nc3ccc(F)cc32)[nH]c2c1C(=O)N(CCN(C)C)CC2`, the IC50 in data set [3] worked out at 3 nM; in data set [4], 1 nM.

With `Cc1c(/C=C2\C(=O)Nc3ccc(F)cc32)[nH]c2c1C(=O)N(CCN1CCOCC1)CC2`, the IC50 came to 10 nM in data set [3] and 1 nM in data set [4].

Take `Cc1c(/C=C2\C(=O)Nc3ccc(F)cc32)[nH]c2c1C(=O)N(C[C@H](O)CN1CCOCC1)CCC2` [HENATINIB]: the half-life in data set [1] is 3.76 h. In [2], the Cmax worked out at 9030 ng/mL. For the same compound, the IC50 in [3] turned out to be 11 nM; in [4] it was 8 nM. The compound further showed a Vd in [5] of 5.1 L/kg. The bioavailability in [7] came to 55.2%. This compound gave a clearance in data set [8] of 21 mL/min/kg. For the same compound, in the data set with Rattus norvegicus, the AUC is 49.21 ug/hr.ml. In addition, the Activity entry in the data set on HT-29 [10] is “Dose-dependent effect”. In addition, in the data set with HT-29 [11], the inhibition in vivo at 10 mg/kg stood at 51.7%.
